Measurements published in patent publication US20100298245A1, “Pharmaceutical Composition for the Treatment of IL-8 mediated diseases” (Revotar Biopharmaceuticals AG, priority 2007, published 2010).

Tested on: Interleukin 8 (IL-8)
Assay: Human clinical trial in COPD patients: IL-8 level in induced sputum supernatant (enzyme immunoassay)
Type: in vivo
Method: A human clinical trial (trial) was conducted to investigate effects of the disodium salt of compound of formula (I) (1,6-Bis [3-(3-carboxymethylphenyl)-4-(2-α-D-mannopyranosyloxy)-phenyl] hexan) on patients with chronic obstructive pulmonary disease (COPD). The trial was carried out according to known methods and according to the “good clinical practices” (GCP), applicable regulatory requirements, and was based on written approval of the Independent Ethics Committee (IEC). Patients were enrolled in the trial based on inclusion and exclusion criteria known.
Patients were treated by inhalation of the disodium salt of the compound of formula (I) for 10 days. The unit dose strength for nebulization was 70 mg in 4 ml of 0.9% NaCl twice a day (bid). To investigate laboratory parameters the procedure of induced sputum (IS) was used to harvest cells and sputum supernatant for further analysis.
To investigate levels of Interleukin 8 (IL-8) in the sputum supernatant, sputum was frozen after collection. Once, all samples were collected, levels of IL-8 were analyzed by using a commercial available enzyme immunoassay for the in vitro quantification of human IL-8 in biological fluids. IL-8 sample concentrations were determined employing calibration curves.

SMILES: O=C(O)Cc1cccc(-c2cc(CCCCCCc3ccc(O[C@H]4O[C@H](CO)[C@@H](O)[C@H](O)[C@@H]4O)c(-c4cccc(CC(=O)O)c4)c3)ccc2O[C@H]2O[C@H](CO)[C@@H](O)[C@H](O)[C@@H]2O)c1 [compound of formula (I), 1,6-Bis [3-(3-carboxymethylphenyl)-4-(2-α-D-mannopyranosyloxy)-phenyl] hexane]
- median value of levels of IL8 in sputum supernatant after treatment (COPD patients, induced sputum supernatant, after inhalation of disodium salt 70 mg in 4 ml 0.9% NaCl bid for 10 days, Mann-Whitney Rank Sum Test p=0.031 vs before): 4985 pg/mL
- median value of levels of IL8 in sputum supernatant before treatment (COPD patients, induced sputum supernatant, baseline before inhalation treatment): 15419 pg/mL
- change of the IL-8 medians (after vs before treatment, inhalation 70 mg bid for 10 days, statistically significant (p=0.031) and clinically relevant): −68%
